Data set [1] deals with Mycobacterium tuberculosis. Briefly: Antimycobacterial activity against Mycobacterium tuberculosis H37Rv assessed as percentage inhibition at 250 ug/ml measured after 2 to 4 weeks by Lowensteine-Jensen method relative to control. The data set is classed as functional. The note with it: time 2-4 weeks.
The subject of data set [2] is Mycobacterium tuberculosis. Description: Antimycobacterial activity against Mycobacterium tuberculosis H37Rv incubated for 7 days by microplate alamar blue assay. The note with it: 168 h, time 7 day. The data set is classed as functional.
Data set [3] has as its system Mycobacterium tuberculosis. Description: Antimycobacterial activity against Mycobacterium tuberculosis H37Rv ATCC 27294. The data set is classed as functional.
Data set [4] concerns Mycobacterium tuberculosis. Briefly: Antimycobacterial activity against Mycobacterium tuberculosis H37Rv ATCC 27294 incubated for 5 days by microplate alamar blue assay. The data set is classed as functional. The note with it: H37Rv ATCC 27294, 120 h, time 5 day.
For data set [5], the system named is Mycobacterium tuberculosis. Description: Antimycobacterial activity against Mycobacterium tuberculosis H37Rv incubated for 5 days by microplate alamar blue assay. The note with it: 120 h, time 5 day. The data set is classed as functional.
For data set [6], the system named is Mycobacterium tuberculosis. Description: Antimycobacterial activity against Mycobacterium tuberculosis H37Rv ATCC 27294 by agar dilution method. The data set is classed as functional.
Data set [7] concerns Mycolicibacterium phlei. Briefly: Antimycobacterial activity against Mycobacterium phlei incubated for 5 days by microplate alamar blue assay. The note with it: 120 h, time 5 day. The data set is classed as functional.
In data set [8] the test system is Mycobacterium tuberculosis. Briefly: Antimycobacterial activity against Mycobacterium tuberculosis H37Rv ATCC 27294 incubated for 6 days by resazurin microtiter assay. The note with it: H37Rv ATCC 27294, 144 h, time 6 day, read-out: MIC100. The data set is classed as functional.
In data set [9] the test system is Mycobacterium tuberculosis. Briefly: Antimycobacterial activity against Mycobacterium tuberculosis 209 incubated for 6 days by resazurin microtiter assay. The data set is classed as functional. The note with it: Mycobacterium tuberculosis, 209, 144 h; time 6 day; read-out: MIC100.
Data set [10] concerns Mycobacterium tuberculosis. Briefly: Antimycobacterial activity against Mycobacterium tuberculosis H37Ra incubated for 6 days by resazurin microtiter assay. The data set is classed as functional. The note with it: 144 h, time 6 day.
Data set [11] can be described thus: Toxicity in brine shrimp nauplii assessed as induction of lethality incubated for 24 hrs by counting method. The note with it: artemia salina.
In data set [12] the test system is Mycolicibacterium smegmatis. Briefly: Antimycobacterial activity against Mycobacterium smegmatis ATCC607 incubated for 16 to 24 hrs by microdilution liquid method. The data set is classed as functional. The note with it: time 16-24 hrs.
Data set [13] relates to Mycobacterium tuberculosis. Description: Antimycobacterial activity against Mycobacterium tuberculosis. The data set is classed as functional, organism-based.
Data set [14] concerns CHO-K1. Description: Cytotoxicity against CHO-K1 cells incubated for 24 hrs by MTT assay. The data set is classed as cell-based. The note with it: Cricetulus griseus, CHO-K1, 24 h.
A short description of data set [15]: Selectivity index, ratio of IC50 for CHO-K1 cells to MIC for Mycobacterium tuberculosis H37Rv. The data set is classed as toxicity. The note with it: hamster.
For data set [16], the system named is Mycobacterium tuberculosis. Description: Antimycobacterial activity against Mycobacterium tuberculosis H37Ra ATCC 25177. The data set is classed as functional.
The test system of data set [17] is Mycobacterium tuberculosis. Briefly: Antimycobacterial activity against Mycobacterium tuberculosis H37Ra ATCC 25177 by two fold dilution technique. The data set is classed as functional.
Data set [18] relates to Mycobacterium tuberculosis. Briefly: Antimycobacterial activity against Mycobacterium tuberculosis H37Rv incubated for 5 days by two-fold serial dilution method. The note with it: 120 h, time 5 day. The data set is classed as functional.
Data set [19] has as its system Mycobacterium tuberculosis. Description: Antimycobacterial activity against Mycobacterium tuberculosis H37Rv. The data set is classed as functional.
Data set [20] relates to Mycobacterium tuberculosis. Briefly: Bactericidal activity against Mycobacterium tuberculosis H37Rv at 8 ug/ml measured within 7 days. The data set is classed as functional. The note with it: dose 8 µg/ml; time day <=7.

In brackets after ≈: the same amount, converted by molar mass.

`CO[C@H]1/C=C/O[C@@]2(C)Oc3c(C)c(O)c4c(O)c(c(/C=N/N5CCN(C)CC5)c(O)c4c3C2=O)NC(=O)/C(C)=C\C=C\[C@H](C)[C@H](O)[C@@H](C)[C@@H](O)[C@@H](C)[C@H](OC(C)=O)[C@@H]1C` [RIFAMPIN]: the inhibition at 250 µg/mL in [1] amounted to 98%. This molecule returned an MIC in data set [2] of 0.2 µg/mL (≈ 0.243 µM).

Regarding `CO[C@H]1O[C@H](Cc2nnc(C)o2)[C@H](OCc2ccccc2)[C@H](OCc2ccccc2)[C@H]1OCc1ccccc1`, the MIC in data set [3] is 60 µM (≈ 31.8 µg/mL).

Consider `CN1CCN(Cc2nnc(-c3ccccc3)o2)CC1`, for which the MIC in data set [4] worked out at 1.6 µg/mL (≈ 6.19 µM).

For `Cn1c(-c2cccc(Cl)c2Cl)nc2cc(-c3nc(-c4ccccc4Cl)no3)ccc21`, the MIC in [5] worked out at 1.6 µg/mL (≈ 3.51 µM).

Molecule `Cc1nnc(-c2cc(-c3ccc(Cl)cc3)n(-c3ccc(NC(=O)c4ccccc4Cl)cc3)n2)o1` returned an MIC in [6] of 1.56 µg/mL (≈ 3.18 µM).

Consider `NC(=O)c1cnccn1` [PYRAZINAMIDE], for which the MIC in [5] came to 3.12 µg/mL (≈ 25.4 µM); in data set [7] it was 3.12 µg/mL (≈ 25.4 µM); in [4] it was 3.12 µg/mL (≈ 25.3 µM).

As for `Cc1nn(-c2ccccc2)c(Oc2cccc(F)c2)c1-c1nnc(-c2ccccc2)o1`, the inhibition at 250 µg/mL in data set [1] was 91%.

For `Cc1cccc(Oc2c(-c3nnc(-c4ccc(F)cc4)o3)c(C)nn2-c2ccccc2)c1`, the inhibition at 250 µg/mL in data set [1] amounted to 91%.

Turning to `O=C(Nc1nnc(-c2ccc(Cl)cc2)o1)c1ccc([N+](=O)[O-])s1`, the MIC in data set [8], in data set [9] and in data set [10] (read-out: MIC100) was 7.8 µg/mL (≈ 22.2 µM) in each case.

Regarding `Clc1nc2ccccc2cc1CN(c1ccccc1)c1nnc(-c2cccnc2)o1`, the 50% lethal concentration (LC50) at 24 h in data set [11] came out at 26 µM. Also, the inhibition at 250 µg/mL in data set [1] came to 96%.

Take `CN[C@@H]1[C@H](O[C@H]2[C@H](O[C@H]3[C@H](O)[C@@H](O)[C@H](N=C(N)N)[C@@H](O)[C@@H]3N=C(N)N)O[C@@H](C)[C@]2(O)C=O)O[C@@H](CO)[C@H](O)[C@H]1O` [STREPTOMYCIN]: the figures for the MIC in data set [5], in data set [7] and in data set [12] were 6.25 µg/mL (≈ 10.7 µM), 6.25 µg/mL (≈ 10.7 µM) and 4 µg/mL (≈ 6.88 µM), respectively.

As to `Cc1ccc2nc(Cl)c(CN(c3ccccc3)c3nnc(-c4cccnc4)o3)cc2c1`, the LC50 at 24 h in data set [11] is 26 µM. Also, the inhibition at 250 µg/mL in data set [1] is 96%.

`O=C(CCCC(F)(F)F)C1CCC(c2nc(-c3nccs3)no2)CC1` (stereo not given) returned an IC50 in data set [13] of 0.4 µM.

Consider `Cc1ccc(-c2nnc(-c3c(C)nn(-c4ccccc4)c3Oc3cccc(F)c3)o2)cc1`, for which the inhibition at 250 µg/mL in data set [1] was above 90%.

Consider `O=C(Nc1nnc(-c2ccc(Cl)cc2)o1)c1cccc([N+](=O)[O-])c1`, for which the MIC in data set [8], in data set [9] and in data set [10] (read-out: MIC100) was 7.8 µg/mL (≈ 22.6 µM) throughout.

With `S=c1[nH]nc(CN2CCSCC2)o1`, the MIC in [12] amounted to 7.8 µg/mL (≈ 35.9 µM).

Take `Cc1ccc(-c2nnc(-c3c(C)nn(-c4ccccc4)c3Oc3ccc(F)cc3)o2)cc1`: the inhibition at 250 µg/mL in data set [1] was above 90%.

In [6], `COc1ccc(-c2cc(-c3nnc(C)o3)nn2-c2ccc(NC(=O)c3ccc(F)cc3)cc2)cc1` gave an MIC above 50 µg/mL.

As to `Cc1nn(-c2ccccc2)c(Oc2cccc(C(F)(F)F)c2)c1-c1nnc(-c2ccc(Br)cc2)o1`, the inhibition at 250 µg/mL in data set [1] turned out to be 91%.

In [4], `CN1CCN(Cc2nnc(-c3ccc(Cl)cc3)o2)CC1` gave an MIC of 3.12 µg/mL (≈ 10.7 µM).

As to `N#Cc1ccc(-c2nnc(-c3n[nH]cc3-c3ccc(Cl)cc3)o2)cc1`, the MIC in data set [4] amounted to 25 µg/mL (≈ 71.9 µM).

In the case of `Cc1nn(-c2ccccc2)c(Oc2ccc(F)cc2)c1-c1nnc(-c2ccc(Br)cc2)o1`, in [1], the inhibition at 250 µg/mL amounted to 91%.

In data set [4], `Fc1ccc(-c2nnc(-c3n[nH]cc3-c3ccc(Cl)cc3)o2)cc1` gave an MIC of 25 µg/mL (≈ 73.4 µM).

On to `O=c1[nH]nc(Cc2coc3cc(Br)ccc23)o1`, for which the MIC in data set [5] and in data set [7] was 1.56 µg/mL (≈ 5.29 µM) each time.

`O=c1[nH]nc(Cc2coc3ccc(Cl)cc23)o1`: the MIC in [5] and in data set [7] was 3.12 µg/mL (≈ 12.5 µM) each time.

Regarding `Cc1nnc(-c2cc(-c3ccc(Cl)cc3)n(-c3ccc(NC(=O)c4ccc(Cl)cc4)cc3)n2)o1`, the MIC in data set [6] stood at 3.13 µg/mL (≈ 6.38 µM).

On to `O=C(Nc1nnc(-c2ccc(Cl)cc2)o1)c1ccc([N+](=O)[O-])o1`, for which the MIC in data set [8], in data set [9] and in data set [10] (read-out: MIC100) was 7.8 µg/mL (≈ 23.3 µM) each time.

`O=C(Nc1nnc(-c2ccc(Cl)cc2)o1)c1ccc([N+](=O)[O-])[nH]1`: the MIC in data set [8] is 31.2 µg/mL (≈ 93.6 µM); in [9], 7.8 µg/mL (≈ 23.4 µM); in data set [10] (read-out: MIC) it was 7.8 µg/mL (≈ 23.4 µM).

Molecule `S=c1[nH]nc(CN2CCOCC2)o1` showed an MIC in data set [12] of 7.8 µg/mL (≈ 38.8 µM).

For `Oc1ccc(-c2nnc(S)o2)cc1`, the half-maximal inhibitory concentration (IC50) in data set [14] is 23.8 µg/mL (≈ 123 µM). For the same molecule, in data set [15], the selectivity ratio turned out to be 39. The molecule also displayed an MIC in data set [2] of 0.6 µg/mL (≈ 3.09 µM).

Consider `Cn1c(-c2cccc(Cl)c2F)nc2cc(-c3nc(-c4ccc(Cl)cc4)no3)ccc21`, for which, in [5], the MIC turned out to be 1.6 µg/mL (≈ 3.64 µM).

`Cn1c(-c2cccc(Cl)c2Cl)nc2cc(-c3nc(-c4ccc(Cl)cc4)no3)ccc21`: in [5], the MIC came out at 1.6 µg/mL (≈ 3.51 µM).

In the case of `O=C(Nc1nnc(-c2ccc(Cl)cc2)o1)c1ccccc1`, the MIC in [8] came out at 7.8 µg/mL (≈ 26 µM); in data set [9], 31.2 µg/mL (≈ 104 µM).

As to `Clc1ccc2nc(Cl)c(CN(c3ccccc3)c3nnc(-c4cccnc4)o3)cc2c1`, the LC50 at 24 h in [11] amounted to 26 µM. Further, in data set [1], the inhibition at 250 µg/mL came to 96%.

Turning to `CC1(C)Cc2c(C#CCO)c(NC(=O)C(C)(C)C)cc(-c3nnc(-c4ccc(C(F)(F)F)cc4)o3)c2O1`, in [16], the IC90 worked out at 5.7 µM. The MIC in data set [17] came out at 2 µg/mL (≈ 3.89 µM).

In [6], `COc1ccc(-c2cc(-c3nnc(C)o3)nn2-c2ccc(NC(=O)c3ccccc3)cc2)cc1` had an MIC above 50 µg/mL.

For the molecule `O=c1[nH]nc(Cc2coc3cc(Cl)ccc23)o1`, the MIC in data set [5] and in data set [7] was 3.12 µg/mL (≈ 12.5 µM) throughout.

In [4], `COc1ccc(-c2nnc(CN3CCN(C)CC3)o2)cc1` yielded an MIC of 3.12 µg/mL (≈ 10.8 µM).

In turn, `CN1CCN(Cc2nnc(-c3ccc(O)cc3)o2)CC1` showed an MIC in [4] of 3.12 µg/mL (≈ 11.4 µM).

In data set [18], `c1csc(-c2nnc(Cc3cccc4ccccc34)o2)c1` came in with an MIC of 0.4 µM (≈ 0.117 µg/mL).

Molecule `O=C(Nc1nnc(-c2ccc(F)cc2)o1)c1ccc(Cl)cc1` yielded an MIC in data set [19] of 1.6 µg/mL (≈ 5.04 µM). The molecule also gave an Activity in data set [20] above 90%.

The values are drawn from ChEMBL document CHEMBL4732049, “Anti-tuberculosis activity and its structure-activity relationship (SAR) studies of oxadiazole derivatives: A key review” (Eur J Med Chem, 2021).
